The values below are quoted from earlier work in US8759098B2, “Method for cloning pluripotent stem cells” (Boston Biomedical Research Institute, Inc., priority 2009, dated 2014).

One data set concerns human adult tissue. To be noted: used singly and in combination; Lin et al. 2009; cited from earlier work.
The next data set concerns somatic cells. To be noted: low oxygen conditions; Page et al. 2009; cited from earlier work.

In the case of `O=C(NOC[C@H](O)CO)c1ccc(F)c(F)c1Nc1ccc(I)cc1F` [PD0325901], in the data set with human adult tissue, the “efficiency of creating stem cells from human adult tissue” value is on record as “dramatically improve the efficiency”. With `NC(=O)c1ccc(-c2nc(-c3ccccn3)c(-c3ccc4c(c3)OCO4)[nH]2)cc1` [SB43142], the “efficiency of creating stem cells from human adult tissue” value in the data set with human adult tissue is on record as “dramatically improve the efficiency”.

Take FGF2: fibroblast growth factor 2: in the data set on somatic cells, the “expression of pluripotency inducing genes” value is “increased”.
